One assay addresses T1, GPX4 (Homo sapiens, UniProt P36969).
T1 construct: Cells were sonicated to make cell lysates that were then cleared by centrifugation; endogenous in cells; host or cells: BJeLR cells (lysate of compound-treated cells)
T1 sequence (P36969 1-197): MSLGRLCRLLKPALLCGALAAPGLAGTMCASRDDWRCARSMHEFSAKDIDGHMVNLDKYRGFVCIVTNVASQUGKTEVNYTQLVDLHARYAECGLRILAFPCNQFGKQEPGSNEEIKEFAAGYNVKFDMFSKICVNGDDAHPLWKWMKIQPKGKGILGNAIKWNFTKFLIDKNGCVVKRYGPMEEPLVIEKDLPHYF
As to the kind of experiment: GPX4 enzymatic activity assay in lysates of treated cells (LC-MS). In kind it is cell-based. The conditions noted are these: BJeLR; 5 μM FIN56 for 10 h. How it is done:
Seeded 17 million BJeLR cells in 225-cm^2 tissue culture flasks (Corning). We then added vehicle (0.1% DMSO for 11 h) or test compound (10 μM erastin for 11 h, 0.5 μM (1S,3R)-RSL3 for 2 h, or 5 μM FIN56 for 10 h). The GPX4 enzymatic activity assay was performed as described previously (Yang et al. 2014). Briefly, 10 million cells were resuspended in cell lysis buffer. Cells were sonicated to make cell lysates that were then cleared by centrifugation at 14,000 r.p.m. for 10 min. The protein concentration of the cleared cell lysates was determined via Bradford protein assay. Mixed 200 μg of cellular protein with phosphatidyl choline hydroperoxide, a GPX4-specific substrate, and reduced glutathione, a GPX4 cofactor. The mixture was incubated at 37° C. for 30 min and then subjected to lipid extraction using chloroform:methanol (2:1) solution. The lipid extract was evaporated using a Rotavap and re-dissolved in 100% ethanol before being injected into the LC-MS instrument for 2-linoleoyl1-palmitoyl-sn-glycero-3-phosphocholine (PLPC) quantitation.

Assay [1] concerns HT-1080 cells. Nature of the assay: Flow cytometry of intracellular Ca(II) levels (Fluo-4). Format: cell-based. The conditions noted are these: 2 μM FIN56; over the course of 9 h. From the text:
The third compound set examined was suppressors of both ferroptosis and necrosis. These were predicted to target three proteins: alpha-1 (α1) adrenergic receptors 1B and 1D and calmodulin 3. Activation of α1 activates phospholipase C and increases Ca(II). Calmoduline 3 is a calcium-binding protein. Since all three proteins are relevant to calcium signaling, we hypothesized that calcium mediates FIN56-induced ferroptosis.
For orientation: Flow cytometry measures light scatter and fluorescence of single cells or particles in a stream.

The subject of assay [2] is glutathione (GSH and GSSG) in HT-1080 cells. As to the kind of experiment: Glutathione-quantification assay. In kind it is cell-based. The conditions noted are these: 5 μM FIN56 with 100 μM α-tocopherol; 10 h. How it is done: Seeded 500,000 HT-1080 cells in a 10-cm dish. Cells were grown at 37° C. for 16 h. On the day of the analysis, cells were cotreated with 100 μM α-tocopherol and either vehicle (DMSO) or a ferroptosis inducer (10 μM erastin, 0.5 μM (1S,3R)-RSL3, or 5 μM FIN56) and incubated for 10 h. Cells were then trypsinized, pelleted, washed once with 400 μL of ice-cold PBS containing 1 mM EDTA, and sonicated. After the cell debris had been pelleted and removed, both oxidized and reduced glutathione in 120 μL of sample was quantified in technical triplicates using the QuantiChrome glutathione assay kit (BioAssay Systems). The glutathione quantity was normalized to the protein concentration measured via Bradford assay (Bio-Rad).

Another assay relates to 143B cells. Nature of the assay: FIN56 lethality in 143B cells with or without mitochondrial DNA. In kind it is cell-based. The note with it: ρ+ or ρ0 cells. From the text:
CoQ10 is an electron carrier in the mitochondrial respiratory chain and an endogenous antioxidant. However, whether it functions in the regulation of ferroptosis via either of these mechanisms remains to be elucidated. […] Thus, exactly how CoQ10 protects cells from FIN56 remains elusive, but the process may involve reprogramming of lipid metabolism in a way that is not conducive to the execution of ferroptosis, or a specific antioxidant action distinct from that of α-tocopherol.

The next assay has as its system GPX1. As to the kind of experiment: Western blotting of GPX1 protein abundance. Format: cell-based, human. The conditions noted are these: BJeLR; FIN56 5 μM, 10 h. How it is done:
Seeded 300,000 cells (HT-1080 or BJeLR) per well in six-well plates. For cotreatment, ferroptosis inducers (10 μM erastin for 11 h, 0.5 μM (1S, 3R)-RSL3 for 2 h, or 5 μM FIN56) and 100 μM α-tocopherol were added to cell culture at the same time, and cells were then incubated for 10 h (FIG. 2E). When other death-modulating compounds (100 nM sodium selenite, 1 μM cerivastatin, 100 μg/mL mevalonic acid, 30 μM C75, or 2 μM cerulenin) were used in cotreatments, cells were pre-incubated with the modulators for 24 h before being treated with ferroptosis inducers for 6 h. Cell lysis, SDS-PAGE and protein transfer to PVDF membrane were performed as previously described (Dixon et al. 2012). We used the following antibodies: anti-human α-tubulin (Santa Cruz Biotechnology, sc-32293, 1:10,000 dilution), anti-human GPX4 (Abcam, ab41787, 1:2,000 dilution), anti-human GPX1 (R&D Systems, AF3798, 1:1,000 dilution), and anti-human SQS (Abcam, ab109723 for full-length, ab195046 for truncated, both at 1:1,000 dilution). Secondary antibodies were from LI-COR (1:3,000 dilution). The PVDF membranes labeled with primary and secondary antibodies were scanned using an Odyssey Imaging System (LI-COR). Experiments were performed in biological triplicates, and the mean±s.e. of intensity was plotted.

Assay [3] concerns HT-1080 cells. Nature of the assay: Analysis of lipid ROS generation (C11-BODIPY 581/591 flow cytometry). Format: cell-based. The conditions noted are these: HT-1080; 6 h; with or without deferoxamine. The protocol: Cells were treated with test compounds, trypsinized, pelleted, and washed once with PBS. For lipophilic or aqueous ROS detection, cells were re-suspended in Hanks' Balanced Salt Solution (HBSS; […] Cells were then pelleted, re-suspended in 500 μL HBSS, strained through a 40-μm cell strainer (BD Falcon), and analyzed using a BD Accuri C6 flow cytometer (BD Biosciences). Both dyes were measured in the FL1 channel. Experiments were done in biological triplicates.

With `O=S(=O)(NC1CCCCC1)c1ccc2c(c1)C(=NO)c1cc(S(=O)(=O)NC3CCCCC3)ccc1-2` [FIN56, N2,N7-dicyclohexyl-9-(hydroxyimino)-9H-fluorene-2,7-disulfonamide], at GPX4, the “GPX4 activity in cell lysates” value is reported as “loss of GPX4 activity”. Besides, the “intracellular Ca(II) levels (Fluo-4)” value in the assay with HT-1080 cells [1] is “increased intracellular Ca(II) levels”. Further, the glutathione depletion entry in assay [2] is recorded as “did not deplete glutathione”. In addition, the “sensitivity of 143B cells with or without mitochondrial DNA” value with 143B cells is “both sensitive to FIN56-induced ferroptosis”. The “abundance of GPX1 protein” value with GPX1 is “but not that of the related selenoprotein GPX1, was substantially decreased”.
Consider `O=S(=O)(c1ccc2c(c1)C(=NO)c1cc(S(=O)(=O)N3CCCCC3)ccc1-2)N1CCCCC1` [CIL56, 2,7-bis(piperidin-1-ylsulfonyl)-9H-fluoren-9-one oxime], for which, in the assay with HT-1080 cells [3], the “lipid ROS generation (BODIPY-581/591 C11)” value is recorded as “induced iron-dependent ROS”.

Values taken from patent US10947188B2, “Small molecule ferroptosis inducers” (THE TRUSTEES OF COLUMBIA UNIVERSITY IN THE CITY OF NEW YORK, priority 2016, dated 2021).
